# Target: T1, NLRP3 inflammasome (Homo sapiens, UniProt Q96P20)
# T1 construct: endogenous in cells; host or cells: THP-1 monocytic cells
# Test: IL-1β secretion assay (NLRP3 IC50) in LPS-primed, nigericin-activated THP-1 cells, HTRF
# Type: cell-based
# Settings: monocytic THP-1 cells; LPS 10 ng/mL 3 h priming, then compound + nigericin 10 μM 2 h; relative IC50, 10 concentrations, geometric mean
# Procedure, shortened: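 IL-1β in supernatant read by HTRF after 2 h co-incubation of compound (0.1% DMSO, 10 concentrations, 1:3 series) with nigericin at 10 μM final, following 3 h LPS (10 ng/mL) priming of THP-1 monocytes at 37° C. Inhibition normalised to unactivated and no-compound controls; geometric-mean relative IC50 from 4-parameter logistic model.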
# T1 sequence (Q96P20 whole entry): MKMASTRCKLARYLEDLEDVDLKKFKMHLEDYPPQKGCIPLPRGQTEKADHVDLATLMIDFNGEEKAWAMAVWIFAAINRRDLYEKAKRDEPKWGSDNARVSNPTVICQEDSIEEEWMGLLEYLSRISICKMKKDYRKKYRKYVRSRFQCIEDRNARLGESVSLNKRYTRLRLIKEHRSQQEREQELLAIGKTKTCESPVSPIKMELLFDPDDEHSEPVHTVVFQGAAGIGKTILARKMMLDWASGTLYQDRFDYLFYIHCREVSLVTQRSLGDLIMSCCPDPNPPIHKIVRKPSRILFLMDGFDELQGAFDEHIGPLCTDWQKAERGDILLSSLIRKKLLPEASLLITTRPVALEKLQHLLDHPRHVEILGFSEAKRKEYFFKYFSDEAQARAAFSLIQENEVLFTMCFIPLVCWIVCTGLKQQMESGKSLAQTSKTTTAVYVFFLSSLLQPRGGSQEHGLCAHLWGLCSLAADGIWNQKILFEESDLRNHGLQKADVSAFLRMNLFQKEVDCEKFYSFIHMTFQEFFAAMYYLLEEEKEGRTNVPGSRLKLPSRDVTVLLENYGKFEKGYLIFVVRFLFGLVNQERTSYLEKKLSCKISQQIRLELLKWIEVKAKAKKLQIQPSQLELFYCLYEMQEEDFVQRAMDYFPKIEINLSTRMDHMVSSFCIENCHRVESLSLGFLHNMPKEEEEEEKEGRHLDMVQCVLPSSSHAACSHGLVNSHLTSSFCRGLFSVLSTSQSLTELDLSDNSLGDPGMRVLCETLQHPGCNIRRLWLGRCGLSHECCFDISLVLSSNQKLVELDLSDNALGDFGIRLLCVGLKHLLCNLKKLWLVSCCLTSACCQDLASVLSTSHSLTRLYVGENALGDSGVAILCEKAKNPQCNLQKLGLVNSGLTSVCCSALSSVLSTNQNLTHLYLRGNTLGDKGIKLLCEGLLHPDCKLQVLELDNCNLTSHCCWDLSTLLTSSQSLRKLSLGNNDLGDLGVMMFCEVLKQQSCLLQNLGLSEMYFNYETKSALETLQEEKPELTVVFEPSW
row,Structure (SMILES),IC50
1,"Oc1cc(Cl)cc(Cl)c1-c1ccc(N2CCC(F)(F)CC2)nn1 [Example 49, 3,5-dichloro-2-[6-(4,4-difluoro-1-piperidyl)pyridazin-3-yl]phenol]",672 nM
2,"CN(C)C[C@H]1CCCN(c2ccc(-c3c(O)cc(Cl)cc3Cl)nn2)C1 [Example 50, 3,5-dichloro-2-[6-[(3R)-3-[(dimethylamino)methyl]-1-piperidyl]pyridazin-3-yl]phenol]",549 nM
3,"CN(C)C[C@@H]1CCCN(c2ccc(-c3c(O)cc(Cl)cc3Cl)nn2)C1 [Example 51, 3,5-dichloro-2-[6-[(3S)-3-[(dimethylamino)methyl]-1-piperidyl]pyridazin-3-yl]phenol]",1050 nM
4,"CCN[C@H]1CCCN(c2ccc(-c3c(C)cc(C)cc3O)nn2)C1 [Example 68, 2-[6-[(3S)-3-(ethylamino)-1-piperidyl]pyridazin-3-yl]-3,5-dimethyl-phenol]",1220 nM
5,"COC[C@H]1CCN(c2ccc(-c3c(C)cc(C)cc3O)nn2)C1 [Example 82, 2-[6-[(3S)-3-(methoxymethyl)pyrrolidin-1-yl]pyridazin-3-yl]-3,5-dimethyl-phenol]",481 nM
6,"Cc1cc(C)c(-c2ccc(N3CC4(CCC(O)CC4)C3)nn2)c(O)c1 [Example 83, 2-[6-(2-hydroxy-4,6-dimethyl-phenyl)pyridazin-3-yl]-2-azaspiro[3.5]nonan-7-ol]",2790 nM
7,"Cc1cc(C)c(-c2ccc(N3CC4(CCC(O)C4)C3)nn2)c(O)c1 (stereo not shown) [Example 84, 2-[6-(2-hydroxy-4,6-dimethyl-phenyl)pyridazin-3-yl]-2-azaspiro[3.4]octan-6-ol]",1770 nM
8,"COC[C@@H]1CCN(c2ccc(-c3c(C)cc(C)cc3O)nn2)C1 [Example 88, 2-[6-[(3R)-3-(methoxymethyl)pyrrolidin-1-yl]pyridazin-3-yl]-3,5-dimethyl-phenol]",1150 nM
9,Cc1cc(C)c(-c2ccc(N3CCO[C@H](CN)C3)nn2)c(O)c1 [Example 89],614 nM
10,"Cc1cc(C)c(-c2ccc(N3CC4(CCN4C)C3)nn2)c(O)c1 [Example 91, 3,5-dimethyl-2-[6-(1-methyl-1,6-diazaspiro[3.3]heptan-6-yl)pyridazin-3-yl]phenol]",4930 nM
11,"Cc1ccc(-c2ccc(N3CCO[C@H](CO)C3)nn2)c(O)c1 [Example 92, 2-[6-[(2S)-2-(hydroxymethyl)morpholin-4-yl]pyridazin-3-yl]-5-methyl-phenol]",2200 nM
12,"Cc1cc(N2CCO[C@H](CO)C2)nnc1-c1ccc(F)cc1O [Example 93, 5-fluoro-2-[6-[(2S)-2-(hydroxymethyl)morpholin-4-yl]-4-methyl-pyridazin-3-yl]phenol]",879 nM
13,"COc1cc(C)c(-c2ccc(N3CCO[C@H](CO)C3)nn2)c(O)c1 [Example 96, 2-[6-[(2S)-2-(hydroxymethyl)morpholin-4-yl]pyridazin-3-yl]-5-methoxy-3-methyl-phenol]",124 nM
14,"Cc1cc(N2CCO[C@H](CO)C2)nnc1-c1ccc(C(F)(F)F)cc1O [Example 97, 2-[6-[(2S)-2-(hydroxymethyl)morpholin-4-yl]-4-methyl-pyridazin-3-yl]-5-(trifluoromethyl)phenol]",38 nM
15,"Cc1ccc(O)c(-c2ccc(N3CCO[C@H](CO)C3)nn2)c1 [Example 102, 2-[6-[(2S)-2-(hydroxymethyl)morpholin-4-yl]pyridazin-3-yl]-4-methyl-phenol]",> 10000 nM
16,"CC(=O)NC[C@H]1CN(c2ccc(-c3c(C)cc(C)cc3O)nn2)CCO1 [Example 105, N-[[(2S)-4-[6-(2-hydroxy-4,6-dimethyl-phenyl)pyridazin-3-yl]morpholin-2-yl]methyl]acetamide]",335 nM

row,Structure (SMILES),IC50
1,"CC(=O)NC[C@@H]1CN(c2ccc(-c3c(C)cc(C)cc3O)nn2)CCO1 [Example 106, N-[[(2R)-4-[6-(2-hydroxy-4,6-dimethyl-phenyl)pyridazin-3-yl]morpholin-2-yl]methyl]acetamide]",174 nM
2,"Cc1cc(C)c(-c2ccc(N3CCCCC(CO)C3)nn2)c(O)c1 (stereo not shown) [Example 107, 2-[6-[3-(hydroxymethyl)azepan-1-yl]pyridazin-3-yl]-3,5-dimethyl-phenol]",385 nM
3,"Cc1cc(C)c(-c2cc(C)c(N3CCO[C@H](CO)C3)nn2)c(O)c1 [Example 109, 2-[6-[(2S)-2-(hydroxymethyl)morpholin-4-yl]-5-methyl-pyridazin-3-yl]-3,5-dimethyl-phenol]",89 nM
4,"Cc1ccc(-c2cc(C)c(N3CCO[C@H](CO)C3)nn2)c(O)c1 [Example 110, 2-[6-[(2S)-2-(hydroxymethyl)morpholin-4-yl]-5-methyl-pyridazin-3-yl]-5-methyl-phenol]",3760 nM
5,"Cc1cc(C)c(-c2nnc(N3CCO[C@H](CO)C3)cc2C)c(O)c1 [Example 112, 2-[6-[(2S)-2-(hydroxymethyl)morpholin-4-yl]-4-methyl-pyridazin-3-yl]-3,5-dimethyl-phenol]",88 nM
6,"Cc1cc(C)c(-c2ccc(N3C[C@@H](O)CO3)nn2)c(O)c1 [Example 113, (4R)-2-[6-(2-hydroxy-4,6-dimethyl-phenyl)pyridazin-3-yl]isoxazolidin-4-ol]",857 nM
7,"Cc1cc(C)c(-c2ccc(N3CC4(CO)CCCC3C4)nn2)c(O)c1 (stereo not shown) [Example 114, 2-[6-[1-(hydroxymethyl)-6-azabicyclo[3.2.1]octan-6-yl]pyridazin-3-yl]-3,5-dimethyl-phenol]",958 nM
8,"Cc1cc(C)c(-c2ccc(N3CC[C@H]3CO)nn2)c(O)c1 [Example 115, 2-[6-[(2S)-2-(hydroxymethyl)azetidin-1-yl]pyridazin-3-yl]-3,5-dimethyl-phenol]",1540 nM
9,"OC[C@@H]1CCN1c1ccc(-c2c(O)cc(Cl)cc2Cl)nn1 [Example 117, 3,5-dichloro-2-[6-[(2S)-2-(hydroxymethyl)azetidin-1-yl]pyridazin-3-yl]phenol]",869 nM
10,"Cc1cc(C)c(-c2ccc(N3CC[C@@H]3CO)nn2)c(O)c1 [Example 118, 2-[6-[(2R)-2-(hydroxymethyl)azetidin-1-yl]pyridazin-3-yl]-3,5-dimethyl-phenol]",758 nM
11,"Cc1cc(C)c(-c2ccc(N3C4CCC3COC4)nn2)c(O)c1 [Example 120, 3,5-dimethyl-2-[6-(3-oxa-8-azabicyclo[3.2.1]octan-8-yl)pyridazin-3-yl]phenol]",2520 nM
12,"Cc1cc(C)c(-c2ccc(N3CCOC[C@H]3CN)nn2)c(O)c1 [Example 123, 2-[6-[(3R)-3-(aminomethyl)morpholin-4-yl]pyridazin-3-yl]-3,5-dimethyl-phenol; 2,2,2-trifluoroacetic acid]",2020 nM
13,"Cc1cc(C)c(-c2ccc(N3CCOC[C@@H]3CN)nn2)c(O)c1 [Example 124, 2-[6-[(3S)-3-(aminomethyl)morpholin-4-yl]pyridazin-3-yl]-3,5-dimethyl-phenol]",1050 nM
14,"Cc1cc(C)c(-c2ccc(N3C[C@H]4NCCO[C@@H]4C3)nn2)c(O)c1 [Example 125, 2-[6-[(4aR,7aR)-3,4,4a,5,7,7a-hexahydro-2H-pyrrolo[3,4-b][1,4]oxazin-6-yl]pyridazin-3-yl]-3,5-dimethylphenol]",1320 nM
15,"Cc1cc(C)c(-c2ccc(N3CCC[C@H](N(C)C)C3)nn2)c(O)c1 [Example 128, 2-[6-[(3S)-3-(dimethylamino)-1-piperidyl]pyridazin-3-yl]-3,5-dimethyl-phenol]",779 nM

# Source: US20240360151A1 (SANOFI, priority 2023, published 2024)
